Test results published in PubChem BioAssay (NCI).
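The concentration for 50% growth inhibition is given as GI50. The concentration for full growth arrest is given as TGI.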

Columns and labels:
Test in all cases: NCI tumour cell line growth inhibition, 384-well format
MDA-MB-435 melanoma = test system: MDA-MB-435 melanoma
U251 glioblastoma = test system: U251 glioblastoma
HCC-2998 colon = test system: HCC-2998 colon
A549 NSCLC = test system: A549 NSCLC
A498 renal = test system: A498 renal
K-562 leukemia = test system: K-562 leukemia
HOP-92 NSCLC = test system: HOP-92 NSCLC
TK-10 renal = test system: TK-10 renal
SF-295 CNS = test system: SF-295 CNS
BT-549 breast = test system: BT-549 breast
IGROV1 ovarian = test system: IGROV1 ovarian
RXF 393 renal = test system: RXF 393 renal
786-0 renal = test system: 786-0 renal
HS 578T breast = test system: HS 578T breast
HCT-15 colon = test system: HCT-15 colon
SF-268 CNS = test system: SF-268 CNS
SW-620 colon = test system: SW-620 colon
MDA-MB-468 breast = test system: MDA-MB-468 breast
MALME-3M melanoma = test system: MALME-3M melanoma
SR leukemia = test system: SR leukemia
SF-539 CNS = test system: SF-539 CNS
COLO 205 colon = test system: COLO 205 colon
SK-OV-3 ovarian = test system: SK-OV-3 ovarian
MDA-MB-231 breast = test system: MDA-MB-231 breast
M14 melanoma = test system: M14 melanoma
HCT-116 colon = test system: HCT-116 colon
NCI-H226 lung = test system: NCI-H226 lung
NCI-H522 lung = test system: NCI-H522 lung
SK-MEL-28 melanoma = test system: SK-MEL-28 melanoma

Q: What does the source list for `C[C@@H]1OC(O)[C@@H](F)[C@H](O)[C@@H]1O` (stereo partly drawn)?
A: GI50 (MDA-MB-435 melanoma): > 100 µM; TGI (MDA-MB-435 melanoma): > 100 µM; GI50 (U251 glioblastoma): > 100 µM; TGI (U251 glioblastoma): > 100 µM; GI50 (HCC-2998 colon): > 100 µM; TGI (HCC-2998 colon): > 100 µM; GI50 (A549 NSCLC): > 100 µM; TGI (A549 NSCLC): > 100 µM; GI50 (A498 renal): > 100 µM; TGI (A498 renal): > 100 µM; GI50 (K-562 leukemia): > 100 µM; TGI (K-562 leukemia): > 100 µM; GI50 (HOP-92 NSCLC): > 100 µM; TGI (HOP-92 NSCLC): > 100 µM; GI50 (TK-10 renal): > 100 µM; TGI (TK-10 renal): > 100 µM; GI50 (SF-295 CNS): > 100 µM; TGI (SF-295 CNS): > 100 µM; GI50 (BT-549 breast): > 100 µM; TGI (BT-549 breast): > 100 µM; GI50 (IGROV1 ovarian): > 100 µM; TGI (IGROV1 ovarian): > 100 µM; GI50 (RXF 393 renal): > 100 µM; TGI (RXF 393 renal): > 100 µM; GI50 ([…]-0 renal): > 100 µM; TGI (786-0 renal): > 100 µM; GI50 (HS 578T breast): > 100 µM; TGI (HS 578T breast): > 100 µM; GI50 (HCT-15 colon): > 100 µM; TGI (HCT-15 colon): > 100 µM; GI50 (SF-268 CNS): > 100 µM; TGI (SF-268 CNS): > 100 µM; GI50 (SW-620 colon): > 100 µM; TGI (SW-620 colon): > 100 µM; GI50 (MDA-MB-468 breast): > 100 µM; TGI (MDA-MB-468 breast): > 100 µM; GI50 (MALME-3M melanoma): > 100 µM; TGI (MALME-3M melanoma): > 100 µM; GI50 (SR leukemia): > 100 µM; TGI (SR leukemia): > 100 µM; GI50 (SF-539 CNS): > 100 µM; TGI (SF-539 CNS): > 100 µM; GI50 (COLO 205 colon): > 100 µM; TGI (COLO 205 colon): > 100 µM; GI50 (SK-OV-3 ovarian): > 100 µM; TGI (SK-OV-3 ovarian): > 100 µM; GI50 (MDA-MB-231 breast): > 100 µM; TGI (MDA-MB-231 breast): > 100 µM; GI50 (M14 melanoma): > 100 µM; TGI (M14 melanoma): > 100 µM; GI50 (HCT-116 colon): > 100 µM; TGI (HCT-116 colon): > 100 µM; GI50 (NCI-H226 lung): > 100 µM; TGI (NCI-H226 lung): > 100 µM; GI50 (NCI-H522 lung): > 100 µM; TGI (NCI-H522 lung): > 100 µM; GI50 (SK-MEL-28 melanoma): > 100 µM; TGI (SK-MEL-28 melanoma): > 100 µM
